Test results: patent US20160320408A1, “METHODS OF T CELL EPITOPE PROFILING, MAKING T CELL COMPOSITIONS, AND TREATING DISEASES” (priority 2013, published 2016)

Key:
Type in all cases: cell-based, human
[1] = test system: PBMC from a healthy donor
[2] = test system: donor cells (PBMC)
[3] = test system: PBMC from a healthy donor; remark: listed apart in the source

DIKNDLYEKTLNDYKAIANK [TT1] was tested, and the “IFNγ over a positivity threshold set at 2.5-fold above the negative control (no peptide) cultures” value [1] was 0 pg/mL.
In the case of IDKISDVSTIVPYIGPALNI [TT4], the “generation of peptide-reactive T-cell line (in words)” value [2] is reported as “successfully generated” and the “IFNγ response (in words)” value [1] is reported as “only one operator (HK) detecting a robust response”.
IVVYNLQSKITLPNDRTTPV [TT2] was tested, and the “IFNγ over a positivity threshold set at 2.5-fold above the negative control (no peptide) cultures” value [1] was 0 pg/mL.
NLVPMVATV [CMVpp65] was tested, and the “detection of IFNγ secreting T-cells, direct ex vivo ELISpot (in words)” value [3] was “readily detectable”.
